Results on eight molecules are retold here after ChEMBL document CHEMBL2150910, “Initial Optimization of a New Series of γ-Secretase Modulators Derived from a Triterpene Glycoside” (ACS Med Chem Lett, 2012).

What is called IC50 is the concentration needed to halve the response being measured. High values mean weaker potency, low ones greater potency. A word on the inhibition: it is the drop in the measured response relative to a control, in per cent. Read a high inhibition as a strong effect. What is called half-life is the time needed for the level to fall by half in the phase considered. A lower half-life goes with rapid decline. Usually Vd stands for the apparent volume that relates the amount in the body to the concentration in plasma or blood. Lower therefore signals confinement near the circulation. As usually defined, the clearance is a measure of how efficiently the substance is removed, as volume per time. A higher clearance goes with efficient removal. One may read the bioavailability as dose-corrected exposure relative to a reference, in per cent. The low end stands for little systemic uptake, the high end for much systemic uptake. In general, AUC refers to concentration integrated over time. Read a low AUC as low exposure. By pKa is commonly meant the pH at which an ionisable group is half protonated. Read a low pKa as a group that gives up its proton readily.

Some results are limits rather than exact numbers.

A short description of series [1]: Inhibition of gamma-secretase-mediated amyloid beta-42 production in diluted 2B7 conditioned media after 5 hrs.
Series [2] is described as follows: Inhibition of gamma-secretase-mediated amyloid beta-40 production in diluted 2B7 conditioned media at 0.8 uM after 5 hrs.
The nature of series [3]: Inhibition of gamma-secretase-mediated amyloid beta-40 production in diluted 2B7 conditioned media after 5 hrs.
Series [4] in a line: Inhibition of gamma-secretase-mediated amyloid beta-38 production in diluted 2B7 conditioned media after 5 hrs.
Series [5] is described as follows: Half life in CD1 mouse at 30 mg/kg, po. The series is classed as ADME, organism-based. Set-up: dose 30 mg/kg, route oral. The note with it: in vivo.
Series [6] in a line: Inhibition of gamma-secretase assessed as ratio of amyloid beta-40 to amyloid beta-42 production in diluted 2B7 conditioned media after 5 hrs.
Series [7] in a line: Inhibition of gamma-secretase-mediated total amyloid beta production in diluted 2B7 conditioned media after 5 hrs.
A further series deals with Gamma-secretase. Description: Inhibition of gamma-secretase-mediated notch processing in human SUP-T1 cells after 1 hr by luminescent assay. The series is classed as cell-based.
Series [8] can be described thus: Half life in CD1 mouse at 1 mg/kg, iv. Format: ADME, organism-based. Set-up: dose 1 mg/kg, route intravenous. The note with it: in vivo.
Series [9] is described as follows: Volume of distribution in CD1 mouse at 1 mg/kg, iv. The series is classed as ADME, organism-based. Set-up: dose 1 mg/kg, route intravenous. The settings on record: in vivo.
Series [10] is described as follows: Clearance in CD1 mouse at 1 mg/kg, iv. Format: ADME, organism-based. Set-up: dose 1 mg/kg, route intravenous. The note with it: in vivo.
A short description of series [11]: Oral bioavailability in CD1 mouse at 30 mg/kg. The series is classed as ADME, organism-based. The settings on record: in vivo.
A short description of series [12]: Ratio of drug level in brain to plasma in CD1 mouse at 30 mg/kg, po. The series is classed as ADME, organism-based. Set-up: dose 30 mg/kg, route oral. The note with it: read-out: BPR.
Series [13] in a line: AUC in CD1 mouse at 30 mg/kg, po. Format: ADME, organism-based. Set-up: dose 30 mg/kg, route oral. The note with it: plasma.
Series [14] in a line: Drug level in CD1 mouse brain at 30 mg/kg, po after 4 hrs. The series is classed as ADME, organism-based. Set-up: dose 30 mg/kg, route oral. The note with it: read-out: Drug uptake.
Series [15] in a line: Drug level in CD1 mouse brain at 30 mg/kg, po after 6 hrs. Format: ADME, organism-based. Set-up: dose 30 mg/kg, route oral. The note with it: read-out: Drug uptake.
The nature of series [16]: Drug level in CD1 mouse brain at 30 mg/kg, po after 8 hrs. Format: ADME, organism-based. Set-up: dose 30 mg/kg, route oral. The settings on record: read-out: Drug uptake.
Series [17] in a line: Drug level in CD1 mouse brain at 30 mg/kg, po after 24 hrs. The series is classed as ADME, organism-based. Set-up: dose 30 mg/kg, route oral. The settings on record: read-out: Drug uptake.
The nature of series [18]: Plasma concentration in CD1 mouse at 30 mg/kg, po after 4 hrs. Format: ADME, organism-based. Set-up: dose 30 mg/kg, route oral.
Series [19] can be described thus: Plasma concentration in CD1 mouse at 30 mg/kg, po after 6 hrs. The series is classed as ADME, organism-based. Set-up: dose 30 mg/kg, route oral.
A short description of series [20]: Plasma concentration in CD1 mouse at 30 mg/kg, po after 8 hrs. Set-up: dose 30 mg/kg, route oral. Format: ADME, organism-based.
Series [21] in a line: Plasma concentration in CD1 mouse at 30 mg/kg, po after 24 hrs. Format: ADME, organism-based. Set-up: dose 30 mg/kg, route oral.
The nature of series [22]: Metabolic stability in CD1 mouse liver microsomes assessed as compound remaining at 1 uM after 60 mins in absence of NADPH. The series is classed as ADME, Microsome. The settings on record: read-out: Stability.
Series [23] can be described thus: Metabolic stability in CD1 mouse liver microsomes assessed as compound remaining at 1 uM after 60 mins in presence of NADPH. The note with it: read-out: Stability. The series is classed as ADME, Microsome. In general terms: Microsomes from liver hold many membrane-bound enzymes, among them those of drug oxidation.
Series [24] deals with Gamma-secretase (Homo sapiens) (UniProt Q96BI3+Q9NZ42+Q8WW43+P49768+Q92542+P49810). Put plainly: Selectivity ratio of IC50 for gamma-secretase-mediated notch processing in human SUP-T1 cells to IC50 for gamma-secretase-mediated amyloid beta-42 production. The series is classed as cell-based.
The nature of series [25]: Dissociation constant, pKa of the compound. The series is classed as physicochemical.
Series [26] is described as follows: Inhibition of gamma-secretase-mediated amyloid beta-40 production in diluted 2B7 conditioned media at 4 uM after 5 hrs.
Series [27] can be described thus: Drug level in CD1 mouse brain at 100 mg/kg, po after 2 hrs. The series is classed as ADME, organism-based. Set-up: dose 100 mg/kg, route oral. The note with it: read-out: Drug uptake.
Series [28] is described as follows: Drug level in CD1 mouse brain at 100 mg/kg, po after 4 hrs. The note with it: read-out: Drug uptake. The series is classed as ADME, organism-based. Set-up: dose 100 mg/kg, route oral.
A short description of series [29]: Drug level in CD1 mouse brain at 100 mg/kg, po after 6 hrs. The series is classed as ADME, organism-based. Set-up: dose 100 mg/kg, route oral. The settings on record: read-out: Drug uptake.
A short description of series [30]: Inhibition of gamma-secretase-mediated amyloid beta-40 production in diluted 2B7 conditioned media at 20 uM after 5 hrs.
Series [31] is described as follows: Inhibition of gamma-secretase-mediated total amyloid beta production in diluted 2B7 conditioned media at 20 uM after 5 hrs.
Series [32] can be described thus: Plasma concentration in CD1 mouse at 100 mg/kg, po after 2 hrs. The series is classed as ADME, organism-based. Set-up: dose 100 mg/kg, route oral.
Series [33] can be described thus: Plasma concentration in CD1 mouse at 100 mg/kg, po after 4 hrs. The series is classed as ADME, organism-based. Set-up: dose 100 mg/kg, route oral.
Series [34] can be described thus: Plasma concentration in CD1 mouse at 100 mg/kg, po after 6 hrs. Set-up: dose 100 mg/kg, route oral. Format: ADME, organism-based.
Series [35] is described as follows: Inhibition of gamma-secretase-mediated amyloid beta-37 production in diluted 2B7 conditioned media after 5 hrs.

On to `CC(=O)O[C@@H]([C@H]1C[C@@H](C)[C@H]2[C@H](O1)[C@H](O)[C@@]1(C)[C@@H]3CC[C@H]4C(C)(C)[C@@H](O[C@H]5CN(CCN(C)C)CCO5)CC[C@@]45C[C@@]35CC[C@]21C)C(C)(C)O`, for which, in series [1], the IC50 turned out to be 90 nM. In [2], the inhibition turned out to be 29%.

Take `CC(=O)O[C@@H]([C@H]1C[C@@H](C)[C@H]2[C@H](O1)[C@H](O)[C@@]1(C)[C@@H]3CC[C@H]4C(C)(C)[C@@H](O[C@H]5CNCCO5)CC[C@@]45C[C@@]35CC[C@]21C)C(C)(C)O`: the IC50 is 55 nM in series [1]; 1400 nM in series [3]; 80 nM in [4]; 2400 nM in series [7]; above 4000 nM against Gamma-secretase. The values for the half-life in series [5] and in [8] were 3 h and 6.5 h, respectively. The Ratio in series [6] was found to be 25. This molecule also gave a distribution volume (Vd) in series [9] of 12.1 L/kg. The same molecule gave a clearance in [10] of 51.7 mL/min/kg. Further, the bioavailability in series [11] is 37%. In series [12], the Kp amounted to 1.7. Also, in series [13], the AUC worked out at 3620 ng·h/mL. Also, the concentration at 4 h in series [14] turned out to be 1340 ng/g; in series [18] it was 1140 ng/mL. In addition, the concentration at 6 h in [15] is 1630 ng/g; in [19], 840 ng/mL. In addition, the concentration at 8 h in series [16] came out at 2260 ng/g; in [20] it was 857 ng/mL. Moreover, the values for the concentration at 24 h in series [17] and in series [21] were 116 ng/g and 31 ng/mL, respectively. In addition, the remaining at 1 h, 1 µM in series [22] was 20%; in [23] it was 25%. Moreover, the Ratio IC50 in series [24] is above 70. The same molecule gave a pKa in series [25] of 7.7.

The molecule `CC(=O)O[C@@H]([C@H]1C[C@@H](C)[C@H]2[C@H](O1)[C@H](O)[C@@]1(C)[C@@H]3CC[C@H]4C(C)(C)[C@@H](O[C@H]5CN(CCO)CCO5)CC[C@@]45C[C@@]35CC[C@]21C)C(C)(C)O` registered an IC50 in series [1] of 240 nM. In [26], this molecule had an inhibition of 46%.

In series [1], `CC(=O)O[C@@H]([C@H]1C[C@@H](C)[C@H]2[C@H](O1)[C@H](O)[C@@]1(C)[C@@H]3CC[C@H]4C(C)(C)[C@@H](O[C@H]5CN(CCN6CCCC6)CCO5)CC[C@@]45C[C@@]35CC[C@]21C)C(C)(C)O` had an IC50 of 110 nM. This molecule displayed an inhibition in series [2] of 34%.

With `CC(=O)O[C@@H]([C@H]1C[C@@H](C)[C@H]2[C@H](O1)[C@H](O)[C@@]1(C)[C@@H]3CC[C@H]4C(C)(C)[C@@H](O[C@@H]5OC[C@@H](O)[C@H](O)[C@H]5O)CC[C@@]45C[C@@]35CC[C@]21C)C(C)(C)O`, the results for the half-maximal inhibitory concentration (IC50) in series [1], in series [3] and in series [4] were 60 nM, 1000 nM and 84 nM, respectively.

As for `CC(=O)O[C@@H]([C@H]1C[C@@H](C)[C@H]2[C@H](O1)[C@H](O)[C@@]1(C)[C@@H]3CC[C@H]4C(C)(C)[C@@H](O[C@H]5CN(C6COC6)CCO5)CC[C@@]45C[C@@]35CC[C@]21C)C(C)(C)O`, the concentration at 2 h in [27] stood at 103 ng/g; in series [32], 279 ng/mL. For the same molecule, the figures for the concentration at 4 h in series [28] and in [33] were 185 ng/g and 420 ng/mL, respectively. For the same molecule, the concentration at 6 h in series [29] was 163 ng/g; in series [34] it was 453 ng/mL. For the same molecule, the IC50 in series [1] was 170 nM; in [3], 14100 nM; in series [4], 300 nM; on Gamma-secretase, above 20000 nM. For the same molecule, the results for the half-life in series [5] and in [8] were 2.3 h and 0.3 h, respectively. Further, the inhibition turned out to be 41% in series [30] and 44% in [31]. For the same molecule, the Ratio in series [6] stood at 52. Also, the distribution volume (Vd) in series [9] worked out at 0.6 L/kg. Moreover, the clearance in series [10] is 55 mL/min/kg. This molecule displayed a bioavailability in [11] of 11%. The Kp in series [12] is 0.23. The exposure (AUC) in [13] worked out at 1010 ng·h/mL. The remaining at 1 h, 1 µM in [22] and in [23] was 1% throughout. The Ratio IC50 in series [24] is above 70. The same molecule registered a pKa in [25] of 4.6.

Regarding `CC(=O)O[C@@H]([C@H]1C[C@@H](C)C2=C(O1)[C@H](O)[C@@]1(C)[C@@H]3CC[C@H]4C(C)(C)[C@@H](O[C@@H]5OC[C@@H](O)[C@H](O)[C@H]5O)CC[C@@]45C[C@@]35CC[C@]21C)C(C)(C)O`, the half-maximal inhibitory concentration (IC50) in [1] turned out to be 100 nM; in series [3] it was 2700 nM; in series [4], 61 nM; in series [35], 39 nM.

The molecule `CC(=O)O[C@@H]([C@H]1C[C@@H](C)[C@H]2[C@H](O1)[C@H](O)[C@@]1(C)[C@@H]3CC[C@H]4C(C)(C)[C@@H](O[C@H]5CN(C6CCC6)CCO5)CC[C@@]45C[C@@]35CC[C@]21C)C(C)(C)O` showed an IC50 in [1] of 350 nM. The same molecule gave an inhibition in series [26] of 44%.
